Values quoted from earlier work as cited in patent publication US20240000809A1, “IMPROVED USE OF CANNABINOIDS IN THE TREATMENT OF EPILEPSY” (ORCOSA INC., priority 2020, published 2024).

Details: ingested orally, extensive first pass metabolism

In the case of `C=C(C)[C@@H]1CCC(C)=C[C@H]1c1c(O)cc(CCCCC)cc1O` [CBD, cannabidiol], the bioavailability is given as 6 to 11%.
